Measurements published in patent publication US20090181904A1, “METHOD FOR REGULATING NUTRIENT ABSORPTION WITH GINSENOSIDES” (priority 2005, published 2009).

What was measured:
Type in all cases: cell-based, human
Caco2 cell monolayer = assay: Glucose absorption assay (transport across Caco2 monolayer in transwell, 14C-glucose); details: for Transport rate (glucose): 2 days pretreatment, 25 mM glucose
Experimental: For glucose absorption assay, 0.3 mL (10^5 cell/ml) of Caco2 cells were seeded into the apical chamber of each transwell and the basolateral chamber was added with 1 ml of culture medium (as indicated above). Costar transwell inserts (No. 3414, Corning Incorporated, NY, USA) separate each well in 24-well plates into an apical chamber (defined as a chamber above the insert) and a basolateral chamber (defined as a chamber below the insert). The culture medium in each transwell was changed every 2 days in both of the apical and basolateral chambers. To ensure the integrity of tight junction of Caco2 monolayer membrane formed in the transwell, a Trans-Epithelial Electrical Resistance (TEER) assay was conducted using Millicell®-ERS (Millipore EVOM-6; World Precision Instrument, Sarasota, Fla., USA) to measure the TEER between apical and basolateral chambers of the transwell. As the measured TEER reached 300 to 450 Ωcm^2 with the presence of differentiated brush border on the […] side of the cell on the 14th to 21st day of the culture, the Caco2 monolayer was ready for the glucose absorption test. The TEER values were taken before, during, and after each experiment to justify consistency of the data collected.
Glucose absorption was initiated by replacing the culture medium in the basolateral chamber with fresh glucose absorption buffer and the culture medium in the apical chamber with 0.2 mL of the glucose absorption buffer containing 2 μCi/ml of radioactive D-[^14C]-glucose (60 Ci/mmol, American Radiolabeled Chemicals, ARC, St. Louis, Mo., USA) and unlabeled cold glucose to give glucose at a final concentration of 25 mM. A series of five 10-μL samples were taken from the basolateral chamber at every 5 or 10 minute intervals. In order to maintain the constant buffer volume, same amount of sample buffer were added back to the basolateral chamber after withdrawn of each sample. The samples were transferred to the filter-bottomed UniFilter plates (Perkin-Elmer, Wellesley, Mass., USA) and dried in a vacuum oven at 37° C. The bottom of the UniFilter plate was sealed and 25 μL of the counting solution were added into each well. Adhesive plate sealers were used in place of the lids and radioactivity of each sample was counted using the microplate liquid scintillation counter (TopCount, Packard NXT, Packard BioScience Company, Meriden, Conn., USA). The effect of test compounds on glucose absorption was expressed as the nmoles of glucose accumulated in the basolateral chamber with respect to time in minutes (nmol/min). The glucose absorption rate was obtained by calculating the slope of the straight line from the time zero to the end point of the graphic data of each figure.

Caco-2 cell monolayer = assay: Arginine absorption assay (transport across Caco-2 monolayer, 3H-arginine); details: for Transport rate (arginine): 10 mM L-arginine
Experimental: In measuring transport of arginine across the Caco-2 cell monolayer, both sides of the transwells were washed with arginine incubation buffer consisting of: 137 mM NaCl, 10 mM Hepes, 0.3 mM NaH2PO4, 0.3 mM K2HPO4, 5.4 mM KCl, 2.8 mM CaCl2, 1 mM MgSO4, 10 mM glucose, adjusted to pH 7.4. Then, the cell layer was pre-incubated in the incubation buffer at 37° C. for 1 h. The volumes of incubation buffer were 0.2 mL and 0.9 mL in the apical and basolateral chambers, respectively. The cells were replaced with fresh incubation medium in both chambers prior to the transport experiment. The transport experiment was initiated by replacing the incubation solution on the apical side with solution containing 10 mM of L-arginine in which 0.125 μCi/mL of L-[^3H]-arginine was included. At designated time intervals, 10 μL-solution samples were removed from the basolateral side and radioactivity of each sample was counted using a microplate liquid scintillation counter (TopCount, Packard NXT). During the experiment, when a 10 μL-solution sample was removed from the basolateral side every time, 10 μL buffer was supplemented to keep the volume constant. The uptake of [^3H]-mannitol was used to correct for nonspecific transport of molecules across the monolayer membrane. Results were expressed as the nanomoles of arginine transport across the Caco-2 cell monolayers with respect to time in minutes (nmol/min).

Caco2 cells = assay: Folate uptake assay (3H-folate uptake in Caco2 cells); details: compound 0.1 μM
Experimental: The Caco2 cells were subjected to folate uptake test in a manner similar to that described in the glucose uptake assay in Example 1 above. In the folate uptake test, the Caco2 cells were pretreated with the culture medium containing 5% FBS and purified ginsenosides at a concentration of […] for 2 days before the cells were cultured in a folate uptake buffer (Hank's balanced salt solution, supplemented with 0.14 g/L CaCl2, 0.1 g/L MgCl2, and 0.1 g/L MgSO4, pH 6.0) for 1 hour. The buffer was then aspirated, and uptake was initiated by adding 0.2 mL of fresh folate uptake buffer containing 2 μCi/mL radioactive folate (3,5,7,9-^3H-folic acid, 25 mCi/mmol, ARC) and cold, unlabeled folate giving a final folate concentration of 5 μM. Folate uptake was terminated by removing the uptake buffer at designated time intervals. The cells were then washed three times with ice-cold PBS and lysed by adding 0.2 mL of 0.2 N NaOH, followed by incubating at 65° C. for 20 min. Intracellular uptake of ^3H-folate was determined by transferring 20 μL of the cell lysate to the filter-bottomed UniFilter plates (Perkin-Elmer) and counting as described previously in Example 1. The amount of folate accumulated in the cells was calculated and normalized to protein concentration, and uptake rate was expressed as picomoles of folate per minutes per milligram of cell protein (pmol/min/mg). Protein concentration was determined by a standard Bicinchoninic acid (BCA) protein assay as described above.

With CC(C)=CCC[C@](C)(O[C@@H]1O[C@H](CO)[C@@H](O)[C@H](O)[C@H]1O)[C@H]1CC[C@]2(C)[C@@H]1[C@H](O)C[C@@H]1[C@@]3(C)CC[C@H](O)C(C)(C)[C@@H]3[C@@H](O[C@@H]3O[C@H](CO)[C@@H](O)[C@H](O)[C@H]3O)C[C@]12C [Rg1, ginsenoside Rg1] the “effect on glucose absorption (in words)” value (Caco2 cell monolayer) was “inhibitory effect”, the “Percentage (glucose transport, control = 100)” value (Caco2 cell monolayer; compound 0.01 μM) was 51.88% and the “glucose transportation (in words, FIG. 2)” value (Caco2 cell monolayer; compound 0.01 μM to 1 μM) was “clearly inhibited”. The “Transport rate (glucose)” value (Caco2 cell monolayer; compound 0.01 μM) was 1.1317 ± 0.1299 nmol/min, the “Percentage (glucose transport, control = 100)” value (Caco2 cell monolayer; compound 0.1 μM) was 58.51% and the “Transport rate (glucose)” value (Caco2 cell monolayer; compound 0.1 μM) was 1.2763 ± 0.1907 nmol/min. The “Percentage (glucose transport, control = 100)” value (Caco2 cell monolayer; compound 1 μM) was 96.68%, the “Transport rate (glucose)” value (Caco2 cell monolayer; compound 1 μM) was 2.1089 ± 0.2097 nmol/min and the “Percentage (arginine transport, control = 100)” value (Caco-2 cell monolayer; compound 0.01 μM) was 126.89%. For the same compound, the “Transport rate (arginine)” value (Caco-2 cell monolayer; compound 0.01 μM) was 13.5583 ± 1.1940 nmol/min, the “Percentage (arginine transport, control = 100)” value (Caco-2 cell monolayer; compound 0.1 μM) was 210.91% and the “Transport rate (arginine)” value (Caco-2 cell monolayer; compound 0.1 μM) was 22.5370 ± 0.8912 nmol/min. For the same compound, the “Percentage (arginine transport, control = 100)” value (Caco-2 cell monolayer; compound 1 μM) was 171.51%, the “Transport rate (arginine)” value (Caco-2 cell monolayer; compound 1 μM) was 18.3265 ± 0.8965 nmol/min and the “Percentage (folate uptake, control = 100)” value (Caco2 cells) was 62.64%. The “folate uptake versus non-treated control (in words, FIG. 5)” value (Caco2 cells) was “decreased” and the “Transport rate (folate uptake)” value (Caco2 cells; 2 days pretreatment, 5 μM folate, pH 6.0) was 1.0780 ± 0.1534 pmol/mg/min.
